Measurements published in ChEMBL document CHEMBL4680283, “Evaluation of 1,1-cyclopropylidene as a thioether isostere in the 4-thio-thienopyrimidine (TTP) series of antimalarials” (Bioorg Med Chem, 2020).

These molecules were tested on Plasmodium falciparum (assay: Antimalarial activity against chloroquine-sensitive Plasmodium falciparum 3D7 MRA-102 infected in human erythrocytes assessed as reduction in parasite growth incubated for 72 hrs by SYBR green dye based fluorescence assay). Conditions: 3D7 MRA-102, Erythrocyte.
Assay type: functional, organism-based

First: Cc1csc(C(C)(O)c2ncnc3sccc23)n1 (configuration not stated)
Second: Cc1csc(Sc2ncnc3sccc23)n1
The EC50 of the first is higher: over 23 µM for the first, 0.037 µM for the second.

First: CCOC(=O)/C=C(/c1nc(C)cs1)c1ncnc2sccc12
Second: Cc1csc(C(=O)c2ncnc3sccc23)n1
The EC50 of the first is 1.7-fold higher: 6.97 µM for the first, 4.08 µM for the second.

First: Cn1c(C2(c3ncnc4sccc34)CC2)nc2ccccc21
Second: Cn1c(Sc2ncnc3sccc23)nc2ccccc21
The EC50 of the first is higher: over 23 µM for the first, 0.191 µM for the second. The second is the more potent here.

Work on `Cc1csc(C2(c3ncnc4sccc34)CC2)n1` yielded an EC50 of over 23 µM.
